Organism: Rattus norvegicus
Assay: Open TG-GATES - Regimen: Single
Format: toxicity, organism-based, Sprague-Dawley
Parameters: regimen Single, gender Male, age 6 weeks
Conditions: in vivo, po, 150 mg/kg, route gavage, dose level High; for APTT / Bas / Eos / Fbg / Hb / Ht / Lym / MCH / MCHC / MCV / Mono / Neu / PT / Plat / RBC / Ret / WBC: tissue Blood; for KIDNEY_L / KIDNEY_R / KIDNEY_TOTAL: tissue Kidney; for LIVER: tissue Liver; for A/G / ALP / ALT / AST / BUN / CRE / Ca / Cl / DBIL / GLC / IP / K / LDH / Na / PL / RALB / TBIL / TC / TG / TP / gamma-GTP: tissue Plasma

**Q.** How did the TERMINAL_BW (3 h) turn out when `S=C=Nc1cccc2ccccc12` [1-NAPHTHYLISOTHIOCYANATE] was run?
**A.** The TERMINAL_BW was 222.9 g.

**Q.** What about the APTT (3 h) of the same molecule?
**A.** Its APTT is 17.4 s.

**Q.** And the Bas (3 h)?
**A.** The Bas was 0.2%.

**Q.** And the Eos (3 h)?
**A.** The Eos was 0.8%.

**Q.** What about the Fbg (3 h) of the same molecule?
**A.** The Fbg was 243 mg/dL.

**Q.** And the Hb (3 h)?
**A.** The Hb was 13.9 g/dL.

**Q.** And the Ht (3 h)?
**A.** The Ht was 38.6%.

**Q.** What about the Lym (3 h) of the same molecule?
**A.** Its Lym is 77.8%.

**Q.** And the MCH (3 h)?
**A.** Its MCH is 22.3 pg.

**Q.** What about the MCHC (3 h) of the same molecule?
**A.** Its MCHC is 36%.

**Q.** And the MCV (3 h)?
**A.** The MCV was 61.8 fL.

**Q.** And the Mono (3 h)?
**A.** The Mono was 2.4%.

**Q.** And the Neu (3 h)?
**A.** Its Neu is 18.2%.

**Q.** What about the PT (3 h) of the same molecule?
**A.** Its PT is 11.8 s.

**Q.** What about the Plat (3 h) of the same molecule?
**A.** The Plat was 124.6 x10_4/uL.

**Q.** And the RBC (3 h)?
**A.** Its RBC is 626.2 x10_4/ul.

**Q.** And the Ret (3 h)?
**A.** The Ret was 8.3%.

**Q.** What about the WBC (3 h) of the same molecule?
**A.** The WBC was 70.9 x10_2/uL.

**Q.** What about the KIDNEY_L (3 h) of the same molecule?
**A.** The KIDNEY_L was 0.9 g.

**Q.** And the KIDNEY_R (3 h)?
**A.** Its KIDNEY_R is 0.9 g.

**Q.** And the KIDNEY_TOTAL (3 h)?
**A.** The KIDNEY_TOTAL was 1.9 g.

**Q.** And the LIVER (3 h)?
**A.** The LIVER was 9.6 g.

**Q.** And the A/G (3 h)?
**A.** The A/G was 1.6.

**Q.** And the ALP (3 h)?
**A.** The ALP was 1056 IU/L.

**Q.** And the ALT (3 h)?
**A.** Its ALT is 43 IU/L.

**Q.** What about the AST (3 h) of the same molecule?
**A.** The AST was 69.6 IU/L.

**Q.** And the BUN (3 h)?
**A.** Its BUN is 9.2 mg/dL.

**Q.** And the CRE (3 h)?
**A.** The CRE was 0.4 mg/dL.

**Q.** What about the Ca (3 h) of the same molecule?
**A.** The Ca was 10.9 mg/dL.

**Q.** And the Cl (3 h)?
**A.** The Cl was 103 meq/L.

**Q.** And the DBIL (3 h)?
**A.** Its DBIL is 0.2 mg/dL.

**Q.** And the GLC (3 h)?
**A.** The GLC was 314.6 mg/dL.

**Q.** What about the IP (3 h) of the same molecule?
**A.** The IP was 11.1 mg/dL.

**Q.** What about the K (3 h) of the same molecule?
**A.** The K was 3.9 meq/L.

**Q.** What about the LDH (3 h) of the same molecule?
**A.** Its LDH is 205.6 IU/L.

**Q.** What about the Na (3 h) of the same molecule?
**A.** The Na was 141.4 meq/L.

**Q.** And the PL (3 h)?
**A.** Its PL is 142.2 mg/dL.

**Q.** What about the RALB (3 h) of the same molecule?
**A.** The RALB was 3.5 g/dL.

**Q.** What about the TBIL (3 h) of the same molecule?
**A.** The TBIL was 0.2 mg/dL.

**Q.** What about the TC (3 h) of the same molecule?
**A.** Its TC is 78.6 mg/dL.

**Q.** What about the TG (3 h) of the same molecule?
**A.** Its TG is 77.6 mg/dL.

**Q.** What about the TP (3 h) of the same molecule?
**A.** The TP was 5.7 g/dL.

**Q.** What about the gamma-GTP (3 h) of the same molecule?
**A.** Its gamma-GTP is 1 IU/L.

**Q.** What about the TERMINAL_BW (6 h) of the same molecule?
**A.** Its TERMINAL_BW is 220.5 g.

**Q.** What about the APTT (6 h) of the same molecule?
**A.** Its APTT is 19.3 s.

**Q.** What about the Bas (6 h) of the same molecule?
**A.** Its Bas is 0.4%.

**Q.** What about the Eos (6 h) of the same molecule?
**A.** Its Eos is 0.6%.

**Q.** And the Fbg (6 h)?
**A.** The Fbg was 247.2 mg/dL.

**Q.** And the Hb (6 h)?
**A.** Its Hb is 14.3 g/dL.

**Q.** What about the Ht (6 h) of the same molecule?
**A.** Its Ht is 40.2%.

**Q.** What about the Lym (6 h) of the same molecule?
**A.** Its Lym is 80.6%.

**Q.** What about the MCH (6 h) of the same molecule?
**A.** The MCH was 21.5 pg.

**Q.** And the MCHC (6 h)?
**A.** The MCHC was 35.6%.

**Q.** What about the MCV (6 h) of the same molecule?
**A.** Its MCV is 60.3 fL.

**Q.** And the Mono (6 h)?
**A.** The Mono was 2.4%.

**Q.** And the Neu (6 h)?
**A.** The Neu was 15.4%.

**Q.** And the PT (6 h)?
**A.** The PT was 12.1 s.

**Q.** What about the Plat (6 h) of the same molecule?
**A.** The Plat was 127.2 x10_4/uL.

**Q.** What about the RBC (6 h) of the same molecule?
**A.** The RBC was 668 x10_4/ul.

**Q.** What about the Ret (6 h) of the same molecule?
**A.** The Ret was 7.4%.

**Q.** What about the WBC (6 h) of the same molecule?
**A.** The WBC was 75.2 x10_2/uL.

**Q.** What about the KIDNEY_L (6 h) of the same molecule?
**A.** The KIDNEY_L was 0.9 g.

**Q.** What about the KIDNEY_R (6 h) of the same molecule?
**A.** Its KIDNEY_R is 0.9 g.

**Q.** And the KIDNEY_TOTAL (6 h)?
**A.** The KIDNEY_TOTAL was 1.9 g.

**Q.** What about the LIVER (6 h) of the same molecule?
**A.** The LIVER was 9 g.

**Q.** And the A/G (6 h)?
**A.** The A/G was 1.5.

**Q.** And the ALP (6 h)?
**A.** The ALP was 846.6 IU/L.

**Q.** What about the ALT (6 h) of the same molecule?
**A.** Its ALT is 40.4 IU/L.

**Q.** What about the AST (6 h) of the same molecule?
**A.** The AST was 71.4 IU/L.

**Q.** What about the BUN (6 h) of the same molecule?
**A.** Its BUN is 10 mg/dL.

**Q.** What about the CRE (6 h) of the same molecule?
**A.** The CRE was 0.4 mg/dL.

**Q.** And the Ca (6 h)?
**A.** Its Ca is 10.7 mg/dL.

**Q.** What about the Cl (6 h) of the same molecule?
**A.** The Cl was 101.2 meq/L.

**Q.** What about the DBIL (6 h) of the same molecule?
**A.** The DBIL was 0.3 mg/dL.

**Q.** And the GLC (6 h)?
**A.** The GLC was 371.2 mg/dL.

**Q.** And the IP (6 h)?
**A.** The IP was 10.4 mg/dL.

**Q.** And the K (6 h)?
**A.** The K was 4.4 meq/L.

**Q.** And the LDH (6 h)?
**A.** The LDH was 188.4 IU/L.

**Q.** What about the Na (6 h) of the same molecule?
**A.** Its Na is 141 meq/L.

**Q.** What about the PL (6 h) of the same molecule?
**A.** Its PL is 149.2 mg/dL.

**Q.** And the RALB (6 h)?
**A.** Its RALB is 3.6 g/dL.

**Q.** What about the TBIL (6 h) of the same molecule?
**A.** The TBIL was 0.2 mg/dL.

**Q.** And the TC (6 h)?
**A.** The TC was 85 mg/dL.

**Q.** And the TG (6 h)?
**A.** The TG was 55.4 mg/dL.

**Q.** And the TP (6 h)?
**A.** Its TP is 5.9 g/dL.

**Q.** What about the gamma-GTP (6 h) of the same molecule?
**A.** The gamma-GTP was 1.2 IU/L.

Reference: ChEMBL document CHEMBL3885861, “Open TG-GATES”
